Common to all, as to experiment: DTP human tumour cell line panel, 48 h
The subject of test [1] is MOLT-4 leukemia.
Test [2] relates to KM12 colon.
For test [3], the system named is CAKI-1 renal.
In test [4] the test system is HOP-62 NSCLC.
The test system of test [5] is PC-3 prostate.
Test [6] relates to HCT-116 colon.
Test [7] relates to NCI/ADR-RES ovarian.
Test [8] has as its system K-562 leukemia.
The test system of test [9] is IGROV1 ovarian.
The test system of test [10] is CCRF-CEM leukemia.
The test system of test [11] is SF-539 CNS.
Test [12] relates to HOP-92 NSCLC.

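Each compound was tested at five concentrations against cells in 96-well plates for 48 hours. Definition used: TGI = concentration required for complete inhibition of growth.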

One may read the TGI as the concentration giving total growth inhibition.

Take `O=C(NNc1nc(-c2ccccc2)cs1)Nc1ccccc1`: the TGI is greater than 100 µM in test [1]; greater than 100 µM in test [2]; greater than 100 µM in test [3]; 56.8 µM in test [4]; 39.1 µM in test [5]; 58.5 µM in test [6]. For the same compound, the TGI in test [7] was 45.8 µM; in test [8] it was greater than 100 µM; in test [9], greater than 100 µM; in [10], greater than 100 µM.

For the compound `COC(=O)C(CNC(=O)/C=C/c1ccc(OC(C)=O)c(OC(C)=O)c1)NC(=O)/C=C/c1ccc(OC(C)=O)c(OC(C)=O)c1` (centres undefined), the total growth inhibition concentration (TGI) is 81.5 µM in test [1]; greater than 100 µM in test [11]; greater than 100 µM in test [2]; greater than 100 µM in test [3]; greater than 100 µM in test [4]; greater than 100 µM in test [5]. Besides, the concentration for total growth inhibition (TGI) in test [6], in [8], in test [12], in test [9] and in test [10] was greater than 100 µM each time.

`C=C(Cl)CN1c2ccccc2C=Cc2ccccc21`: the TGI was 75.2 µM in [11]; 48.9 µM in test [2]; 52.9 µM in test [3]; 89.9 µM in [4]; greater than 100 µM in [5]; 29 µM in [6]. Moreover, the figures for the TGI in [7], in test [12] and in test [9] were greater than 100 µM, 61.2 µM and greater than 100 µM, respectively.

For `CNC(=O)C1OC(n2cnc3c(NCc4cccc(I)c4)nc(Cl)nc32)C(O)C1O` (centres undefined), the TGI in test [1] worked out at 53.3 µM; in [11] it was 23 µM; in test [2], 24.3 µM; in test [3] it was 40.7 µM; in test [4], 25.2 µM; in test [5], 24.1 µM. For the same compound, the TGI in test [6] is 41.7 µM; in test [7] it was 24 µM; in test [8], greater than 100 µM; in test [9], 27.2 µM; in test [10] it was 76.6 µM.

As to `N#Cc1c(N2CCCC2)nsc1Nc1ccccc1`, the concentration for total growth inhibition (TGI) in [1], in test [11], in test [2], in test [5], in [6] and in test [7] was greater than 100 µM throughout. Moreover, the TGI in test [8], in [12], in [9] and in [10] was greater than 100 µM each time.

In the case of `Cc1cc(OCC(O)CO)ccc1Cl` (centres undefined), the TGI in test [1], in test [11], in test [2], in test [3], in test [4] and in test [6] was greater than 100 µM in each case. Moreover, the TGI in test [8], in [12], in test [9] and in test [10] was greater than 100 µM in each case.

Regarding `Fc1ccc2c(c1)nc1n2C(c2c(F)cccc2F)SC1` (centres undefined), the TGI in test [1] is 69 µM; in test [11], greater than 100 µM; in [2], 64.4 µM; in test [3] it was greater than 100 µM; in test [4] it was greater than 100 µM; in test [5], greater than 100 µM. In addition, the concentration for total growth inhibition (TGI) in test [6], in test [7], in [12] and in test [9] was greater than 100 µM throughout.

As to `NS(=O)(=O)c1ccc(NCc2nc3ccccc3[nH]2)cc1`, the concentration for total growth inhibition (TGI) in test [11], in [2], in test [3], in [4], in test [5] and in test [6] was greater than 100 µM each time. Besides, the TGI in [7], in [12] and in [9] was greater than 100 µM in each case.

Consider `Cc1cc(O)c(C(C)C)cc1C(=S)Nc1ccc(Cl)cc1`, for which the TGI in test [1] turned out to be 19 µM; in test [11], 29.6 µM; in test [2], 23 µM; in test [3], 27.9 µM; in test [4] it was 32.9 µM; in [5], 23 µM. For the same compound, the TGI in test [6] was 26 µM; in test [7], 34.5 µM; in test [8], 23.4 µM; in [9], 15.9 µM; in test [10], 16.7 µM.

Consider `CSc1nc(-c2ccccc2)nc(=[N+]2CCOCC2)s1`, for which the TGI in [1], in test [11], in test [2], in test [4], in test [6] and in [8] was greater than 100 µM in each case. Also, the TGI is greater than 100 µM in test [9] and 62.6 µM in test [10].

`Cc1ccc2c(=O)cc(-c3cccc(F)c3)[nH]c2n1`: the TGI was greater than 100 µM in [1]; 0.78 µM in test [11]; 1.29 µM in test [2]; greater than 100 µM in test [3]; greater than 100 µM in test [4]; greater than 100 µM in test [8]. In addition, the concentration for total growth inhibition (TGI) in test [12], in test [9] and in [10] was greater than 100 µM throughout.

Turning to `Cc1cc(S(=O)(=O)Nc2n[nH]c(Nc3ccccc3)n2)c(SSc2cc(Cl)c(C)cc2S(=O)(=O)Nc2n[nH]c(Nc3ccccc3)n2)cc1Cl`, the TGI in test [1] was greater than 100 µM; in test [11], greater than 10 µM; in test [2], greater than 100 µM; in test [3], greater than 100 µM; in test [4] it was greater than 100 µM; in [5], greater than 100 µM. Besides, the TGI in [6], in test [7], in test [8], in test [9] and in test [10] was greater than 100 µM in each case.

In the case of `Nc1ncc2c(n1)-c1ccccc1OC2`, the TGI in test [1], in [11], in test [2], in test [4], in test [6] and in [7] was greater than 100 µM in each case. The total growth inhibition concentration (TGI) in test [8], in [12], in test [9] and in [10] was greater than 100 µM throughout.

Source of the values: PubChem BioAssay (NCI).
